# Experimental data as given in patent US11266578B2, “Composition, kit and method for coloring keratinous fibers” (Henkel AG & Co. KGaA, priority 2017, dated 2022).
# Assay: Water-solubility at 1 wt. % in distilled water
# Format: physicochemical
# Settings: 1 wt. % in ~pH7 distilled water at RT; clear = soluble, turbid = insoluble
# Experimental: Water-solubility of a chemical compound, and, for instance, water insolubility of condensation-curable amino-silicone pre-polymers, can be provided by the supplier. It can also be confirmed or determined as follows. Water-solubility was assessed by mixing 1 wt. % of the material in near neutral (˜pH7) distilled water at RT, followed by a brief vortex for homogeneity. A clear solution indicated a water-soluble material, whereas turbidity indicated an at least partly water-insoluble material.
row,SMILES,water-solubility
1,"CCO[Si](CCCN1CCC[Si]1(OCC)OCC)(OCC)OCC [SIT8187.2, 1-(3-(triethoxysilyl)propyl)-2,2-diethoxi-1-aza-2-silacyclopentane]",insoluble
2,"C[Si](C)(CCCN)O[Si](C)(C)CCCN [GP-967, Bis 3-aminopropyl tetramethyldisiloxane]",turbid dispersion
3,CCO[Si](C)(C)CCCN [3-aminopropyldimethylethoxysilane],water soluble
4,"CCO[Si](CCCN)(OCC)OCC [Dynasylan® AMEO, 3-aminopropyltriethoxysilane]",soluble
5,"CCO[Si](CCCNCCC[Si](OCC)(OCC)OCC)(OCC)OCC [SIB1824.5, bis(triethoxy-silylpropyl) amine]",insoluble
6,CCO[Si](CCCNCCN)(OCC)OCC [N-(2-aminoethyl)-3-aminopropyltriethoxysilane],water soluble

# Same assay, conditions: Table 17
row,SMILES,solubility (in Material Type)
1,CCO[Si](C)(CCCNCCC[Si](C)(OCC)OCC)OCC [Bis[methyldiethoxysilyl-propyl] amine],silane (non soluble)
2,CCO[Si](C)(CCCN)OCC [3-Aminopropylmethyl-diethoxysilane],silane (soluble)
3,"C[Si]1(C)O[Si](C)(C)O[Si](C)(C)O[Si](C)(C)O[Si](C)(C)O1 [Decamethylcyclopenta-siloxane, Decamethylcyclopentasiloxane]",(soluble)
4,CCO[Si](CCCNCCN)(OCC)OCC [N-(2-aminoethyl)-3-aminopropyltriethoxysilane],silane (soluble)
